Measured values from US10765680B2, “Combination of a MCL-1 inhibitor and a taxane compound, uses and pharmaceutical compositions thereof” (priority 2017, dated 2020).

Assays:
[1] = tested on: BT-20 breast cancer cell line; experiment: 72 hours CellTiter-Glo proliferation assay, BT-20; type: cell-based; settings: single agent, read-out: Abs IC50
Procedure: (§1) Compounds were dissolved in 100% DMSO (Sigma, Catalog # D2438-50 ML) at a stock concentration of 10 mM and stored at −20° C. until use. Compounds were arrayed in 2 ml deep 96-well plates (Greiner bio-one, catalog number 780271) serially diluted 3-fold. Compound 1 was used over a concentration range of 0.0-10.0 μM. Paclitaxel was used over a concentration range of 0.0-1.0 μM in breast cancer cells and 0.0-2.0 μM range in lung cancer cells.
(§2) All cell lines were purchased from the American Type Culture Collection and cultured according to vendor recommendations. […] All cell lines were determined to be free of mycoplasma contamination by a PCR detection assay performed at Idexx Radil (Columbia, Mo., USA) and authenticated by SNP analysis. […] Cells were expanded to T-75 flasks and assessed for viability using a Beckman-Coulter ViCell counter prior to plating. […]
(§3) Cell proliferation was measured in 72 hours CellTiter-Glo™ (CTG) assays and all results shown are the result of at least triplicate measurements. […] After 72 hours of compound treatment the effects of compounds on cell proliferation was determined using the CellTiter-Glo™ Luminescent Cell Viability Assay (Promega, Catalog # G7573). This is a homogeneous method to determine the number of viable cells in culture based on quantitation of the ATP present, which signals the presence of metabolically active cells. […]

[2] = tested on: BT-474 breast cancer cell line; experiment: 72 hours CellTiter-Glo proliferation assay, BT-474; type: cell-based; settings: single agent, read-out: Abs IC50
Procedure: as §1, §2, §3

[3] = tested on: Cal-148 breast cancer cell line; experiment: 72 hours CellTiter-Glo proliferation assay, Cal-148; type: cell-based; settings: single agent, read-out: Abs IC50
Procedure: as §1, §2, §3

[4] = tested on: MDA-MB-231 xenografts; experiment: MDA-MB-231 breast xenograft model, antitumor efficacy; type: in vivo, female nude rats; settings: Compound 1 50 mg/kg QW×7 iv infusion, liposomal formulation
[5] = tested on: BT-549 breast cancer cell line; experiment: 72 hours CellTiter-Glo proliferation assay, BT-549; type: cell-based; settings: single agent, read-out: Abs IC50
Procedure: as §1, §2, §3

[6] = tested on: TNBC 110T PDX model; experiment: TNBC 110T PDX model, tumor growth and survival (Compound 1, docetaxel); type: in vivo, NOD-SCID-IL2Rγc−/− female mice; settings: Compound 1 15 mg/kg i.v. twice weekly for six weeks
Procedure: A cohort of 40 female NSG mice was seeded with thawed single cell suspensions of early passage human breast tumors (TNBC PDX110). Briefly, 100,000 cells were resuspended in 10 μl of transplantation buffer (50% fetal calf serum, 10% of a 0.04% trypan blue solution and 40% PBS) and growth-factor-reduced Matrigel [BD] at a ratio of 3:1, and injected into the cleared mammary fat pads of 3- or 4-week-old NOD-SCID-IL2Rγc^−/− female mice. […] Once tumors reached a volume of 60-110 mm^3, mice were randomized into treatment arms and treatment commenced. Docetaxel or its vehicle was prepared by dissolving stock solution (20 mg/ml) with PBS and injected i.p. every 21 days for two treatment cycles. The duration of therapy is indicated by the bar. […] Compound 1 (15 mg/kg) or its vehicle was injected i.v. twice weekly for six weeks. Mice were sacrificed at the first measurement where tumor volume exceeded 600 mm^3, or if their health deteriorated for reasons other than disease progression or drug toxicity (censored event). n=9-10 mice per treatment group.

Work on `COc1ccccc1-c1nccc(COc2ccccc2C[C@@H](Oc2ncnc3sc(-c4ccc(F)cc4)c(-c4ccc(OCCN5CCN(C)CC5)c(Cl)c4C)c23)C(=O)O)n1` [Compound 1, (2R)-2-{[(5Sa)-5-{3-chloro-2-methyl-4-[2-(4-methylpiperazin-1-yl)ethoxy]phenyl}-6-(4-fluorophenyl)thieno[2,3-d]pyrimidin-4-yl]oxy}-3-(2-{[2-(2-methoxyphenyl)pyrimidin-4-yl]methoxy}phenyl)propanoic acid] yielded an IC50 [1] of 653 nM, an IC50 [2] of 1260 nM and an IC50 [3] of 1330 nM. For the same compound, the efficacy [4] was “no efficacy”, the IC50 [5] was > 10000 nM and the “inhibition of tumor growth, single agent” value [6] was “insufficient in inhibiting tumor growth”.
